Measurements reported in patent US9434764B2, “Skin care compositions and methods comprising selective agonists of melanocortin 1 receptor” (University of Cincinnati, priority 2012, dated 2016).
“Also recorded” adds a separate entry of the source. Each block holds one compound with its values, some of them ahead of it.

What was measured:
MC1R [1] = target: T1, MC1R (Homo sapiens, UniProt Q01726); assay: Stimulation of cAMP formation in cultured human melanocytes; assay type: cell-based; parameters: MC1R is expressed on the cell surface of melanocytes; endogenous in cells; host or cells: cultured human melanocytes; details: for cAMP compared to 10 nM αMSH: cultured human melanocytes; for potency in stimulating cAMP formation compared to another peptide: in words
T1 sequence (Q01726 whole entry): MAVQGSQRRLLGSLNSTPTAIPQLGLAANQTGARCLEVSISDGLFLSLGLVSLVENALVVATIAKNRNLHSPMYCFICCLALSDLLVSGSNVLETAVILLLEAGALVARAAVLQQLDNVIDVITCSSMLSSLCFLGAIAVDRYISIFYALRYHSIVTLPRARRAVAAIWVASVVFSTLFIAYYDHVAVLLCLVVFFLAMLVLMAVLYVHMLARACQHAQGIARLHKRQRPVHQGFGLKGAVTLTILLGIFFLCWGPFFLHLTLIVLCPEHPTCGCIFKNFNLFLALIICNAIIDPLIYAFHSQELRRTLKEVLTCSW
Protocol: Peptides were tested on cultured human melanocytes for their capacity to activate MC1R, as measured by stimulating cAMP formation. After 45 minutes of treatment with different concentrations of peptides, cAMP levels were measured using a I^125-labeled radioimmunoassay kit.
(§1) Peptides were tested as described in Example 4 above on cultured human melanocytes for their capacity to activate MC1R, as measured by stimulating cAMP formation, and for their capacity for stimulating tyrosinase activity, the rate-limiting enzyme for melanin synthesis. The tested peptides were synthesized according to the formula: Ar(CH2)mX^1—X^2—CO—X^3—X^4—X^5-(Trp)n-NX^6R wherein X^1 and X^2 are absent, X^3 is His, X^5 is Arg, and X^6 is H. X^4 amino acids were in the D-stereoisomer form, unless otherwise noted.

tyrosinase activity = assay: Stimulation of tyrosinase activity in cultured human melanocytes; assay type: cell-based; details: for effect on tyrosinase activity compared to another peptide / concentration at which significant stimulation of tyrosinase activity begins: 6-day treatment; for effect on tyrosinase activity compared to another peptide: in words; for TA (tyrosinase activity) compared to 10 nM αMSH: cultured human melanocytes
Protocol: Peptides were tested on cultured human melanocytes for their capacity for stimulating tyrosinase activity, the rate-limiting enzyme for melanin synthesis. Melanocytes were treated every other day, for a total of 6 days, with increasing concentrations of peptides. Medium containing H^3-tyrosine, the substrate for tyrosinase, was added to melanocytes 24 hours before the end of the 6-day treatment. Tyrosinase activity was measured by determining the amount of ^3H2O generated as […] is catalyzed by tyrosinase for melanin synthesis.
as §1

[2] = Peptide storage stability by HPLC; assay type: physicochemical; details: lyophilized, open air, room temperature, 4 months
Protocol: LK-513 (Ph(CH2)3CO-His-(D-4-Bip)-Arg-NHMe) was tested for stability and degradation over a storage period. The peptide was stored in a lyophilized form in open air at room temperature for 4 months. After 4 months, HPLC was performed on a test sample of the peptide in order to measure degradation, using standard methods (FIG. 1). […] Without being bound by theory, it is believed that the enhanced stability is a product of the absence of amide bonds between natural L-L-amino acids in the tripeptides and the existence of only one amide bond between natural amino acids in the tetrapeptides (Arg-Trp). Amide bonds between non-natural D- and natural L-amino acids are less prone to chemical and enzymatic hydrolysis, as evidenced by the FIG. 1. Further, the bulk and hydrophobicity of the X4 amino acid (D-Phe or a bulky hydrophobic analog thereof, such as D-4-Bip in the case of LK-513) shield the polar amid bonds of the peptide from chemical and enzymatic degradation.

hMC4R = target: T2, hMC4R (Homo sapiens, UniProt P32245); assay: cAMP stimulation in heterologous cells expressing human MC4R; assay type: cell-based; details: for EC50: cAMP, heterologous cells
T2 construct: expressed in transfected cells
T2 sequence (P32245 whole entry): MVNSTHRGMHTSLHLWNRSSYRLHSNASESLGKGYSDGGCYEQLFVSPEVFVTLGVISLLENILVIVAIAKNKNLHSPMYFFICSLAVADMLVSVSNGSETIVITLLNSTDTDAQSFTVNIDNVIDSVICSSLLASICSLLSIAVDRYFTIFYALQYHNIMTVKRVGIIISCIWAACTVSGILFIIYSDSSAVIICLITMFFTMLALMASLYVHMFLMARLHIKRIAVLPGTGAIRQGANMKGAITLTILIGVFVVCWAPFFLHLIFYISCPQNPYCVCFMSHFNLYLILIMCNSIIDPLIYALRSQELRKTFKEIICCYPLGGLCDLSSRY
Protocol: (§2) Receptor selectivity of peptide agonists for hMC1R was determined by stimulation of cAMP in heterologous cells expressing different human melanocortin receptors (MC1R, MC3R, MC4R, and MC5R).

hMC3R = target: T3, hMC3R (Homo sapiens, UniProt P41968); assay: cAMP stimulation in heterologous cells expressing human MC3R; assay type: cell-based; details: for EC50: cAMP, heterologous cells; for binding of MC3R: in words
T3 construct: expressed in transfected cells
T3 sequence (P41968 whole entry): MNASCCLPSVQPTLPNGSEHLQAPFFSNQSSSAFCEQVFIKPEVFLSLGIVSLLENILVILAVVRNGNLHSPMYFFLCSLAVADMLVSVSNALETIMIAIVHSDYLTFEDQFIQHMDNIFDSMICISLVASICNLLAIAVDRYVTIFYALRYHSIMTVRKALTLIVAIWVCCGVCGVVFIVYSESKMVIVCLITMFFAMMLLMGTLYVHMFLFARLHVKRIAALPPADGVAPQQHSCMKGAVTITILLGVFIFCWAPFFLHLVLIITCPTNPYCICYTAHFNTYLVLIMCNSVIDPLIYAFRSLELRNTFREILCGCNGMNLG
Protocol: as §2

MC1R [3] = target: T1, MC1R; assay: cAMP stimulation in heterologous cells expressing human MC1R; assay type: cell-based; parameters: expressed in transfected cells; details: for EC50: cAMP, heterologous cells; for potency in activation of MC1R compared to MT-II: in words
Protocol: as §2

hMC5R = target: T4, hMC5R (Homo sapiens, UniProt P33032); assay: cAMP stimulation in heterologous cells expressing human MC5R; assay type: cell-based; details: for EC50: cAMP, heterologous cells; for binding of MC5R: in words
T4 construct: expressed in transfected cells
T4 sequence (P33032 whole entry): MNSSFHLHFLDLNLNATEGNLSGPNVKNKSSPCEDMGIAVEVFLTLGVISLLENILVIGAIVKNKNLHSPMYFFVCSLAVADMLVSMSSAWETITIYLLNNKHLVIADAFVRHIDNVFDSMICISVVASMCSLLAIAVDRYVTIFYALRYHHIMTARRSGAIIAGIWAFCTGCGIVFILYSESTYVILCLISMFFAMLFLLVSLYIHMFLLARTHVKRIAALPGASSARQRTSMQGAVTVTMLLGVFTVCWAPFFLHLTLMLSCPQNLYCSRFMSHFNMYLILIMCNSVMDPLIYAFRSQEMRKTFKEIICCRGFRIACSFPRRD
Protocol: as §2

[4] = test system: UV-irradiated human melanocytes; assay: Repair of UV-induced cyclobutane pyrimidine dimers (CPD) in human melanocytes; assay type: cell-based; details: for CPD removal at 1 nM compared to 10 nM α-MSH: 1 nM peptide, 48 hours post UV
Protocol: To investigate the effects of peptides on the repair of UV-induced DNA damage, levels of cyclobutane pyrimidine dimers (CPD), the major form of DNA photoproducts, were measured in UV-irradiated human melanocytes with or without peptide treatment. Melanocytes were pretreated with the peptides for 4 days prior to, and for 48 hours post UV exposure, harvested, immunostained by a specific antibody for CPD, and analyzed by flow cytometry.

[5] = test system: UV-irradiated human melanocytes; assay: Repair of UV-induced 8-oxodG in human melanocytes; assay type: cell-based
Protocol: To investigate the effects of peptides on repair of UV-induced DNA damage, levels of 8-oxodG, a major form of oxidative DNA damage, were measured in UV-irradiated human melanocytes with or without peptide treatment. […] Fluorescence intensity, which correlates with the amount of DNA damage, was quantified using ImagJ software.

human melanocytes = assay: Potency in human melanocytes; assay type: cell-based; details: in words
Excerpt: Satyanarayanajois S. D., et al., Conformations of end-capped melanocortin agonists RCO-X-Z-Arg-Trp-NH2 by 2D-NMR, CD and computations, Peptides Breaking Away: Proceedings of the Twenty-First American Peptide Association 384 (2009). […] Ruwe A. R. et al., Semi-rigid tripeptide agonists of melanocortin receptors, Bioorg. Med. Chem. Lett. 19(17): 5176-81 (2009). […] Thus, while not desiring to be bound by theory, it is believed that the conformational restraints favorable for longer peptides may be unfavorable for shorter MC1R agonists, including the Formula I and Formula II peptides disclosed herein.

mouse MCRs = details: in words; cited from earlier work

Compound: Ph(CH2)3CO-His-(D-2-Nal)-Arg-NH2 [LK 515P]
TA (tyrosinase activity) compared to 10 nM αMSH (tyrosinase activity): <<

Compound: N=C(N)NCCC[C@H](NC(=O)[C@@H](Cc1ccc(-c2ccccc2)cc1)NC(=O)[C@H](Cc1c[nH]cn1)NC(=O)CCCc1ccccc1)C(N)=O [LK-511, Ph(CH2)3CO-His-(D-4-Bip)-Arg-NH2]
potency in stimulating cAMP formation compared to another peptide (MC1R [1]; human melanocytes): about ten times less potent than α-MSH
TA (tyrosinase activity) compared to 10 nM αMSH (tyrosinase activity): <
concentration at which significant stimulation of tyrosinase activity begins (tyrosinase activity; human melanocytes): 1 nM
EC50 (hMC4R): > 10000 nM
binding of MC4R (hMC4R; in words): do not bind
EC50 (hMC3R): > 10000 nM
binding of MC3R (hMC3R): do not bind
EC50 (MC1R [3]): 1.46 nM
potency in activation of MC1R compared to MT-II (MC1R [3]): about as potent as MT-II
EC50 (hMC5R): > 10000 nM
binding of MC5R (hMC5R): do not bind

Compound: Ph(CH2)3CO-His-(D-1-Nal)-Arg-NHMe [LK 512P]
TA (tyrosinase activity) compared to 10 nM αMSH (tyrosinase activity): NR (NR = No Response/inactive at 10 nM)

Compound: CC(C)(C)c1ccc(C[C@@H](NC(=O)[C@H](Cc2c[nH]cn2)NC(=O)CCCc2ccccc2)C(=O)N[C@@H](CCCNC(=N)N)C(N)=O)cc1 [LK-514, Ph(CH2)3CO-His-(D-4-tBuPhe)-Arg-NH2]
potency in stimulating cAMP formation compared to another peptide (MC1R [1]; human melanocytes): about ten times less potent than α-MSH; also recorded: more potent than LK-511 or 513; also recorded: more potent than LK-511 or LK-513
TA (tyrosinase activity) compared to 10 nM αMSH (tyrosinase activity): <
concentration at which significant stimulation of tyrosinase activity begins (tyrosinase activity; human melanocytes): 1 nM
effect on tyrosinase activity compared to another peptide (tyrosinase activity; human melanocytes): the most effective
reduction of 8-oxodG levels at 100 nM compared to 1 nM α-MSH ([5]; 100 nM peptide, 24 hours post UV): greater effect than 1 nM α-MSH
EC50 (hMC4R): > 10000 nM
binding of MC4R (hMC4R; in words): do not bind
EC50 (hMC3R): > 10000 nM
binding of MC3R (hMC3R): do not bind
EC50 (MC1R [3]): 3.65 nM
potency in activation of MC1R compared to MT-II (MC1R [3]): about as potent as MT-II
EC50 (hMC5R): > 10000 nM
binding of MC5R (hMC5R): do not bind

Compound: N=C(N)NCCC[C@H](NC(=O)[C@@H](Cc1cccc2ccccc12)NC(=O)[C@H](Cc1c[nH]cn1)NC(=O)CCCc1ccccc1)C(=O)N[C@@H](Cc1c[nH]c2ccccc12)C(N)=O [LK-467, Ph(CH2)3CO-His-(D-1-Nal)-Arg-Trp-NH2]
potency in stimulating cAMP formation compared to another peptide (MC1R [1]; human melanocytes): more potent than LK-184
effect on tyrosinase activity compared to another peptide (tyrosinase activity; human melanocytes): comparable effects in tyrosinase activity
potency compared to α-MSH in activating MC1R and stimulating melanogenesis (tyrosinase activity; human melanocytes, tyrosinase activity): at least 100 times
reduction of 8-oxodG levels compared to LK-184 ([5]; 24 hours after UV exposure): as effective as LK-184
EC50 (hMC4R): 18.1 nM
potency at hMC4R compared to LK-184 (hMC4R; in words): about ten times less potent
CPD removal at 1 nM compared to 10 nM α-MSH [4]: same effect at 1 nM on CPD removal as 10 nM α-MSH
reduction of CPD levels compared to LK-184 ([4]; 48 hours after UV exposure): as effective as LK-184
EC50 (hMC3R): 32.4 nM
EC50 (MC1R [3]): 0.34 nM
EC50 (hMC5R): 122 nM

Compound: Ph(CH2)3CO-His-(D-1-Nal)-Arg-NH2 [LK 510P]
TA (tyrosinase activity) compared to 10 nM αMSH (tyrosinase activity): NR (NR = No Response/inactive at 10 nM)

Compound: trans-4-HOC6H4CH═CHCO-His-D-Phe-Arg-NH2
potency in human melanocytes (human melanocytes): less potent
MC1R selectivity and potency at mouse MCRs compared to LK-394 (mouse MCRs): moderately increased MC1R selectivity and potency

Further lines, with some results ahead:

cAMP compared to 10 nM αMSH (MC1R [1]): ≦
Compound: Ph(CH2)3CO-His-(D-2-Nal)-Arg-Trp-NH2 [LK 468P]

cAMP compared to 10 nM αMSH (MC1R [1]): ≧
Compound: 3,4-O(CH2)2C6H4CH2CO-His-(D-4-FPhe)-Arg-Trp-NH2 [LK 210P]

potency in stimulating cAMP formation compared to another peptide (MC1R [1]; human melanocytes): equipotent to LK-467
effect on tyrosinase activity compared to another peptide (tyrosinase activity; human melanocytes): equipotent to LK-467
Compound: Ph(CH2)3CO-His-(D-Phe)-Arg-Trp-NHEt [LK-487]

potency in stimulating cAMP formation compared to another peptide (MC1R [1]; human melanocytes): about ten times less potent than α-MSH
TA (tyrosinase activity) compared to 10 nM αMSH (tyrosinase activity): <
concentration at which significant stimulation of tyrosinase activity begins (tyrosinase activity; human melanocytes): 1 nM
EC50 (hMC4R): > 10000 nM
binding of MC4R (hMC4R; in words): do not bind
EC50 (hMC3R): > 10000 nM
binding of MC3R (hMC3R): do not bind
EC50 (MC1R [3]): 3.27 nM
potency in activation of MC1R compared to MT-II (MC1R [3]): about as potent as MT-II
EC50 (hMC5R): > 10000 nM
binding of MC5R (hMC5R): do not bind
Compound: CNC(=O)[C@H](CCCNC(=N)N)NC(=O)[C@@H](Cc1ccc(-c2ccccc2)cc1)NC(=O)[C@H](Cc1c[nH]cn1)NC(=O)CCCc1ccccc1 [LK-513, Ph(CH2)3CO-His-(D-4-Bip)-Arg-NHMe]
stability and degradation by HPLC [2]: highly stable and resistant to degradation, showing only a single HPLC peak; also recorded: highly stable and substantially free of degradation

cAMP compared to 10 nM αMSH (MC1R [1]): ≦
TA (tyrosinase activity) compared to 10 nM αMSH (tyrosinase activity): ≧
Compound: 4-FC6H4CH2CO-His-(D-4-FPhe)-Arg-Trp-NH2 [LK 205P]

concentration giving maximal cAMP (MC1R [1]; human melanocytes, 45 minutes of treatment): 10 nM
EC50 (hMC3R): 22.7 nM
EC50 (MC1R [3]): 0.19 nM
EC50 (hMC5R): 262 nM
Compound: N=C(N)NCCC[C@H](NC(=O)[C@@H](Cc1ccccc1)NC(=O)[C@H](Cc1c[nH]cn1)NC(=O)CCCc1ccccc1)C(=O)N[C@@H](Cc1c[nH]c2ccccc12)C(N)=O [LK-184, Ph(CH2)3CO-His-(D-Phe)-Arg-Trp-NH2]
effect on tyrosinase activity compared to another peptide (tyrosinase activity; human melanocytes): comparable effects in tyrosinase activity
CPD removal at 1 nM compared to 10 nM α-MSH [4]: same effect at 1 nM on CPD removal as 10 nM α-MSH

TA (tyrosinase activity) compared to 10 nM αMSH (tyrosinase activity): <<<
Compound: Ph(CH2)3CO-His-(D-2-Nal)-Arg-NHMe [LK 517P]

TA (tyrosinase activity) compared to 10 nM αMSH (tyrosinase activity): <<
Compound: Ph(CH2)3CO-His-(D-4-tBuPhe)-Arg-NHMe [LK 516P]
